Measured values: patent US20240277006A1, “ANTIBIOTIC-FREE ANTIMICROBIAL FEED ADDITIVES AND ANTIMICROBIAL COMPOSITIONS” (Sláinte Beoga Teoranta, priority 2018, published 2024)

System: E. coli (1103 DSMZ)
Assay: Checkerboard assay, composition with antibiotic
Format: cell-based
Conditions: composition comprising a source of iodide ions and a source of hydrogen peroxide plus antibiotic
Procedure: Checkerboard assays were carried out to determine if there is a synergistic antagonistic effect with the addition of an antibiotic to a composition comprising a source of iodide ions and a source of hydrogen peroxide. • E. coli (1103 DSMZ) was used for tests • These tests were carried out in lysogeny broth (lb) • Antibiotics tested were ampicillin and gentamycin • Procedure: • 50 μl antibiotic • 100 μl composition • 150 μl 10^5 cells in LB Results
Cells shaded in dark grey represent sub-inhibitory concentrations where growth prevailed. Bacterial growth was prevented for the remaining cells. […] However, in the presence of both the composition and the antibiotic, the concentrations required to achieve a kill are lower—in other words, the combined MIC is lower. These can be seen by the entries marked with a star (*).

Row | Structure (SMILES) | Effect of the antibiotic in combination with the composition
1 | CC[C@H]1OC(=O)[C@H](C)[C@@H](O[C@H]2C[C@@](C)(OC)[C@@H](O)[C@H](C)O2)[C@H](C)[C@@H](O[C@@H]2O[C@H](C)C[C@H](N(C)C)[C@H]2O)[C@](C)(OC)C[C@@H](C)C(=O)[C@H](C)[C@@H](O)[C@]1(C)O [clarithromycin] | synergistic effect
2 | CC[C@H]1OC(=O)[C@H](C)[C@@H](O[C@H]2C[C@@](C)(OC)[C@@H](O)[C@H](C)O2)[C@H](C)[C@@H](O[C@@H]2O[C@H](C)C[C@H](N(C)C)[C@H]2O)[C@](C)(O)C[C@@H](C)C(=O)[C@H](C)[C@@H](O)[C@]1(C)O [erythromycin] | synergistic effect
